How the values were obtained:
Assay type in all cases: physicochemical
[1] = Single-stage extraction: partitioning of dicofol technical between n-heptane and 90% aqueous methanol
Description: A 50g sample of the desired dicofol solution was taken in a stoppered 100 ml graduated cylinder. […] They were then shaken well for two minutes. The samples were placed in an ice-water bath for 30 minutes. After the cooling period all samples were again shaken for 2 minutes. The samples were returned to the bath and allowed to equilibrate for 30 minutes. The samples were then removed from the bath and volumes recorded (Table I - Columns 2 and 3). The layers were then separated and each layer weighed (Columns 4 and 5). The separated layers were concentrated under vacuum (70°C, 1 mm Hg), weighed (columns 6 and 7) and analyzed (Table II).
In subsequent experiments, the partitioning of dicofol technical between n-heptane and 90% aqueous methanol was also evaluated at 23°C. The combined results from the 0°C and 23°C experiments are presented in Table IV where the results are expressed as distribution coefficients for dicofol and the two principal DDTr's found in dicofol technical, o,p'-DDE and p,p'-Cl-DDT. In all cases, the extractability of DDTr's exceeded that of dicofol by a significant margin.

[2] = Single-stage extraction: dicofol technical in aqueous ethanol of various concentrations partitioned with heptane; settings: 30% dicofol technical solution, 50 grams, 40 grams heptane, 23°C
Description: Alternative solvent systems were evaluated. The distribution coefficients were determined by partitioning dicofol technical.
In Table VII, n-heptane was used as the extractant and different raffinate phase solvents were evaluated. In Table VIII, ethanol was used as the raffinate solvent and different extracting solvents were evaluated. In Table IX, n-heptane was used as the extractant and ethanol at different aqueous concentrations was used as the raffinate solvent. In the experiments set forth in Table IX, 30% dicofol technical solution (in the raffinate layer) was used and 50 grams of this solution was partitioned with 40 grams of the extracting solvent. In Table X, methanol was used as the raffinate solvent and different extracting solvents were evaluated. And in Table XI, using n-heptane as the extracting solvent and aqueous methanol as the raffinate solvent, the partition coefficients were determined as a function of temperature and concentration of dicofol.

[3] = Single-stage extraction: dicofol technical in aqueous methanols of various water content contacted with n-heptane; settings: 50g of 33% solution of dicofol technical, 40 g n-heptane, 23°C
Description: The effect on distribution coefficients and selectivities of the amount of water in the methanol was determined. […] All distribution coefficients rise as the percentage of water increases. The selectivities rise initially but then begin to decrease at water levels higher than a maximum range. Importantly, if the water in the methanol is omitted, the addition of practical concentrations of dicofol technical causes the phases to coalesce.

[4] = dicofol technical spiked with 0.25 Wt % p,p'-DDD and separately p,p'-DDT, 50g of 33% solution in 90% aqueous methanol, 40g n-heptane, 23°C
[5] = dicofol technical spiked with 0.72 Wt % p,p'-DDD and separately p,p'-DDT, 50g of 33% solution in 90% aqueous methanol, 40g n-heptane, 23°C
[6] = dicofol technical spiked with 1.80 Wt % p,p'-DDD and separately p,p'-DDT, 50g of 33% solution in 90% aqueous methanol, 40g n-heptane, 23°C
[7] = heptane layer / raffinate layer, 50 g of dicofol solution conc. 8.4 in 90% aqueous methanol, 20 g heptane, 0 °C
[8] = heptane layer / raffinate layer, 50 g of dicofol solution conc. 10 in 90% aqueous methanol, 40 g heptane, 23 °C
[9] = heptane layer / raffinate layer, 50 g of dicofol solution conc. 16.7 in 90% aqueous methanol, 20 g heptane, 0 °C
[10] = heptane layer / raffinate layer, 50 g of dicofol solution conc. 16.7 in 90% aqueous methanol, 20 g heptane, 23 °C
[11] = heptane layer / raffinate layer, 50 g of dicofol solution conc. 20 in 90% aqueous methanol, 40 g heptane, 23 °C
[12] = heptane layer / raffinate layer, 50 g of dicofol solution conc. 30 in 90% aqueous methanol, 40 g heptane, 23 °C
[13] = heptane layer / raffinate layer, 50 g of dicofol solution conc. 33 in 90% aqueous methanol, 20 g heptane, 0 °C
[14] = heptane layer / raffinate layer, 50 g of dicofol solution conc. 40 in 90% aqueous methanol, 40 g heptane, 23 °C
[15] = heptane layer / raffinate layer, 50 g of dicofol solution conc. 50 in 90% aqueous methanol, 20 g heptane, 0 °C
[16] = heptane layer / raffinate layer, 50 g of dicofol solution conc. 50 in 90% aqueous methanol, 40 g heptane, 23 °C
[17] = ratio of DDTr D.C. to that of dicofol, dicofol solution conc. 8.4 in 90% aqueous methanol, 20 g heptane, 0 °C
[18] = ratio of DDTr D.C. to that of dicofol, dicofol solution conc. 10 in 90% aqueous methanol, 40 g heptane, 23 °C
[19] = ratio of DDTr D.C. to that of dicofol, dicofol solution conc. 16.7 in 90% aqueous methanol, 20 g heptane, 0 °C
[20] = ratio of DDTr D.C. to that of dicofol, dicofol solution conc. 16.7 in 90% aqueous methanol, 20 g heptane, 23 °C
[21] = ratio of DDTr D.C. to that of dicofol, dicofol solution conc. 20 in 90% aqueous methanol, 40 g heptane, 23 °C
[22] = ratio of DDTr D.C. to that of dicofol, dicofol solution conc. 30 in 90% aqueous methanol, 40 g heptane, 23 °C
[23] = ratio of DDTr D.C. to that of dicofol, dicofol solution conc. 33 in 90% aqueous methanol, 20 g heptane, 0 °C
[24] = ratio of DDTr D.C. to that of dicofol, dicofol solution conc. 40 in 90% aqueous methanol, 40 g heptane, 23 °C
[25] = ratio of DDTr D.C. to that of dicofol, dicofol solution conc. 50 in 90% aqueous methanol, 20 g heptane, 0 °C
[26] = ratio of DDTr D.C. to that of dicofol, dicofol solution conc. 50 in 90% aqueous methanol, 40 g heptane, 23 °C

Structure (SMILES) | Distribution coefficient (D.C.) [1, 4] | Selectivity (Sel.) [1, 4] | Distribution coefficient (D.C.) [1, 5] | Selectivity (Sel.) [1, 5] | Distribution coefficient (D.C.) [1, 6] | Selectivity (Sel.) [1, 6] | Distribution coefficient (D.C.) [1, 7] | Distribution coefficient (D.C.) [1, 8] | Distribution coefficient (D.C.) [1, 9] | Distribution coefficient (D.C.) [1, 10] | Distribution coefficient (D.C.) [1, 11] | Distribution coefficient (D.C.) [1, 12] | Distribution coefficient (D.C.) [1, 13] | Distribution coefficient (D.C.) [1, 14] | Distribution coefficient (D.C.) [1, 15] | Distribution coefficient (D.C.) [1, 16] | Selectivity (Sel.) [1, 17] | Selectivity (Sel.) [1, 18] | Selectivity (Sel.) [1, 19] | Selectivity (Sel.) [1, 20] | also measured
ClC(Cl)=C(c1ccc(Cl)cc1)c1ccccc1Cl [o,p'-DDE] | 2.4 | 7.6 | 2.4 | 7.2 | 2.4 | 6.8 | 3.6 | 3.9 | 3.2 | 3.4 | 3.5 | 2.4 | 1.8 | 2.32 | 1.3 | 1.66 | 17.3 | 12.2 | 16.1 | 10.1 | Selectivity (Sel.) [1, 21]: 11.0; Selectivity (Sel.) [1, 22]: 7.9; Selectivity (Sel.) [1, 23]: 10.5; Selectivity (Sel.) [1, 24]: 7.2; Selectivity (Sel.) [1, 25]: 7.9; Selectivity (Sel.) [1, 26]: 5.3; Distribution coefficient (D.C.) ([2]; 85% aqueous ethanol): 2.06; Selectivity (Sel.) ([2]; 85% aqueous ethanol): 2.78; Distribution coefficient (D.C.) ([2]; 87% aqueous ethanol): 1.28; Selectivity (Sel.) ([2]; 87% aqueous ethanol): 2.01; Distribution coefficient (D.C.) ([2]; 90% aqueous ethanol): 1.08; Selectivity (Sel.) ([2]; 90% aqueous ethanol): 1.42; Distribution coefficient (D.C.) ([3]; 4 % H₂O in Aq. MeOH): 1.5; Selectivity (Sel.) ([3]; 4 % H₂O in Aq. MeOH): 5.7; Distribution coefficient (D.C.) ([3]; 8 % H₂O in Aq. MeOH): 2.2; Selectivity (Sel.) ([3]; 8 % H₂O in Aq. MeOH): 7.7; Distribution coefficient (D.C.) ([3]; 12 % H₂O in Aq. MeOH): 3.1; Selectivity (Sel.) ([3]; 12 % H₂O in Aq. MeOH): 8.3; Distribution coefficient (D.C.) ([3]; 16 % H₂O in Aq. MeOH): 3.6; Selectivity (Sel.) ([3]; 16 % H₂O in Aq. MeOH): 6.1
Clc1ccc(C(Cl)(c2ccc(Cl)cc2)C(Cl)(Cl)Cl)cc1 [p,p'-Cl-DDT, 1,1-bis-(4-chlorophenyl)-1,2,2,2-tetrachloroethane] | 3.7 | 11.8 | 3.8 | 11.4 | 3.8 | 10.8 | 9.1 | 7.5 | 4.4 | 4.1 | 5.3 | 4.0 | 2.6 | 2.8 | 1.5 | 2.1 | 23.3 | 23.4 | 22.4 | 12.2 | Selectivity (Sel.) [1, 21]: 16.8; Selectivity (Sel.) [1, 22]: 13.1; Selectivity (Sel.) [1, 23]: 14.9; Selectivity (Sel.) [1, 24]: 8.6; Selectivity (Sel.) [1, 25]: 9.4; Selectivity (Sel.) [1, 26]: 6.8; Distribution coefficient (D.C.) ([2]; 85% aqueous ethanol): 1.65; Selectivity (Sel.) ([2]; 85% aqueous ethanol): 2.22; Distribution coefficient (D.C.) ([2]; 87% aqueous ethanol): 1.48; Selectivity (Sel.) ([2]; 87% aqueous ethanol): 2.33; Distribution coefficient (D.C.) ([2]; 90% aqueous ethanol): 0.91; Selectivity (Sel.) ([2]; 90% aqueous ethanol): 1.20; Distribution coefficient (D.C.) ([3]; 4 % H₂O in Aq. MeOH): 1.9; Selectivity (Sel.) ([3]; 4 % H₂O in Aq. MeOH): 7.0; Distribution coefficient (D.C.) ([3]; 8 % H₂O in Aq. MeOH): 2.9; Selectivity (Sel.) ([3]; 8 % H₂O in Aq. MeOH): 10.1; Distribution coefficient (D.C.) ([3]; 12 % H₂O in Aq. MeOH): 4.6; Selectivity (Sel.) ([3]; 12 % H₂O in Aq. MeOH): 12.2; Distribution coefficient (D.C.) ([3]; 16 % H₂O in Aq. MeOH): 6.8; Selectivity (Sel.) ([3]; 16 % H₂O in Aq. MeOH): 11.4
Clc1ccc(C(c2ccc(Cl)cc2)C(Cl)Cl)cc1 [p,p'-DDD, 1,1-bis-(4-chlorophenyl)-2,2-dichloroethane] | 0.66 | 2.1 | 0.71 | 2.1 | 0.79 | 2.2 |  |  |  |  |  |  |  |  |  |  |  |  |  |  | 
Clc1ccc(C(c2ccc(Cl)cc2)C(Cl)(Cl)Cl)cc1 [p,p'-DDT, 1,1-bis-(4-chlorophenyl)-2,2,2-trichloroethane] | 1.9 | 5.9 | 1.9 | 5.6 | 2.1 | 6.0 |  |  |  |  |  |  |  |  |  |  |  |  |  |  | 
